For one data set, the system named is fibrotic marker genes. The data set is described as follows: Expression of fibrotic marker genes in lung following bleomycin-induced pulmonary fibrosis (real time PCR). It is filed as in vivo, Male Wistar rats. Particulars: bleomycin-treated rats, daily 50 mg/kg, days 1-21, real time PCR normalized to 18S. The protocol:
(B) Effect of a Representative Compound on Expression of Fibrotic Marker Genes Following Bleomycin-induced Pulmonary Fibrosis.
One part of the frozen lung tissue dedicated to investigation of gene expression was cut into small pieces using a sterile scalpel blade. Approximately 100 mg of tissue was then placed into a 2 ml Eppendorf tube and 1.5 ml of Trizol (Invitrogen) was added. A sterile tungsten carbide bead (Qiagen) was then added to the tube and the tube was placed in a Retsch MM300 Tissue disruptor (Qiagen) at a frequency of 30.0 Hz for 8 minutes. After this time, the bead was removed and the sample centrifuged at 12000 rpm for 10 minutes to remove tissue debris. The RNA was extracted using a modified version of the manufacturer's protocol supplied with Trizol. […] The concentration of each sample was then measured using a spectrophotometer. […]
Real Time PCR was carried out in 25 μl reactions, using 25 ng (5 μl) of cDNA per reaction. A quantitative PCR core kit was purchased (Eurogentec) and a master-mix was made up as follows for 100 reactions: 500 μl 10× reaction buffer, 500 μl MgCl2 (50 mM), 200 μl dNTP mix solution (5 mM), 25 μl Hot Goldstar enzyme, 75 μl 18S PDAR, 22.5 μl forward primer, 22.5 μl reverse primer, 15 μl probe and […] DEPC treated water. […]
In order to quantify the gene expression, a standard curve was constructed for each primer set and was included on each plate. […]
For orientation: In qPCR the cycle at which signal appears reflects the starting amount.

For data set [1], the system named is Bleomycin-induced Pulmonary Fibrosis. Put plainly: Lung morphology following bleomycin-induced pulmonary fibrosis (histology, Masson's Trichrome). The format is in vivo, Male Wistar rats. The conditions noted are these: bleomycin-treated rats (10 U/kg intratracheal), daily oral treatment with 50 mg/kg, days 1-21, lungs removed 21 days after instillation. The protocol:
(A) Effect of a Representative Compound on Lung Morphology Following Bleomycin-induced Pulmonary Fibrosis. Bleomycin sulfate (Bleomycin […]) was purchased from a local pharmacy. All experiments were performed in accordance with German guidelines for animal welfare, performed by persons certified to work with animals and approved by the responsible authorities. Male Wistar rats were intratracheally injected with Bleomycin sulfate (10U/kg body weight in 300 μl saline) or saline alone (saline control) using a catheter (0.5 mm internal diameter, 1.0 mm external diameter) through the nasal passage, following exposure to the anaesthetic Isofluorane for 5 minutes. The following day, the rats were orally treated with Example A (compound (m)) or saline suspended in 1 ml 0.1% Natrosol. Control rats were administered 1 ml 0.1% Natrosol (vehicle control). [table] 21 days following bleomycin instillation, the rats were killed with a lethal intraperitoneal injection of NarcorenTM (Pentobarbital Sodium, Rhone Merieux). The lungs were then removed, blotted dry and half was snap frozen in liquid nitrogen and stored at -80° C. The other half was fixed in 4% formalin for subsequent paraffin embedding and histology. […] Collagen deposition was assessed using Masson's Trichrome staining. […]

Consider seven compounds from patent publication US10154990B2, “Medicaments for the treatment or prevention of fibrotic diseases” (Boehringer Ingelheim International GmbH, priority 2004, dated 2018).

Molecules are shown by their SMILES.

Take `COC(=O)c1ccc2c(c1)NC(=O)/C2=C(\Nc1ccc(N(C)C(=O)CN(C)C)cc1)c1ccccc1` [Compound (m), 3-Z-[1-(4-(N-dimethylaminomethylcarbonyl-N-methyl-amino)-anilino)-1-phenyl-methylene]-6-methoxycarbonyl-indolinone]: the “expression of fibrotic marker genes (procollagen I, fibronectin) in the lung” value in the data set with fibrotic marker genes (FIGS. 2 and 3, vs bleomycin + vehicle) was “significant (p≤0.0001) inhibition”. For the same compound, the “lung fibrosis (lung morphology, collagen deposition by Masson's Trichrome staining)” value in data set [1] is reported as “consistent, nearly complete reversal of lung fibrosis”.

The compound `COC(=O)c1ccc2c(c1)NC(=O)/C2=C(\Nc1ccc(CN(C)C)cc1)c1cccc(CCC(=O)O)c1` [(aw), 3-Z-[1-(4-dimethylaminomethyl-anilino)-1-(3-(2-carboxy-ethyl)-phenyl)-methylene]-6-methoxycarbonyl-2-indolinone] returned a melting point of 163 to 167 °C.

Turning to `COC(=O)c1ccc2c(c1)NC(=O)/C2=C(\Nc1ccc(N(C)C(=O)CN(C)C)c(C#N)c1)c1ccccc1` [(v), 3-Z-[1-(3-cyano-4-(N-dimethylaminomethylcarbonyl-N-methyl-amino)-anilino)-1-phenyl-methylene]-6-methoxycarbonyl-2-indolinone], the melting point was 163 to 165 °C. Regarding `COC(=O)c1ccc2c(c1)NC(=O)/C2=C(\Nc1ccc(N(C)C(=O)CN2CCN(C)CC2)cc1)c1ccccc1` [Compound (u), 3-Z-[1-(4-(N-((4-methyl-piperazin-1-yl)-methylcarbonyl)-N-methyl-amino)-anilino)-1-phenyl-methylene]-6-methoxycarbonyl-2-indolinone], in the data set with fibrotic marker genes (FIGS. 5 and 6, vs bleomycin + vehicle), the “expression of fibrotic marker genes (procollagen I, TGFb) in the lung” value is given as “significant (p≤0.0001) inhibition”. For the same compound, the “lung fibrosis (lung morphology, collagen deposition by Masson's Trichrome staining)” value in data set [1] is recorded as “consistent, nearly complete reversal of lung fibrosis”. For `COC(=O)c1ccc2c(c1)NC(=O)/C2=C\Nc1ccc(N(C)C(=O)CN2CCN(C)CC2)cc1` [(cq), 3-Z-[1-(4-(N-((4-methyl-piperazin-1-yl)-methylcarbonyl)-N-methyl-amino)-anilino)-methylene]-6-methoxycarbonyl-2-indolinone], the melting point is 203 to 207 °C. For the compound `CN1CCN(Cc2ccc(N/C(=C3\C(=O)Nc4cc(C(=O)O)ccc43)c3ccccc3)cc2)CC1` [(am), 3-Z-[1-(4-(4-methylpiperazin-1-yl-methyl)-anilino)-1-phenyl-methylene]-6-carboxy-2-indolinone], the melting point was 275 °C.

In turn, `COC(=O)c1ccc2c(c1)NC(=O)/C2=C(\Nc1ccc(N(C)C(=O)N2CCN(C)CC2)cc1)c1ccccc1` [(ag), 3-Z-[1-(4-(N-((4-methyl-piperazin-1-yl)-carbonyl)-N-methyl-amino)-anilino)-1-phenyl-methylene]-6-methoxycarbonyl-2-indolinone] displayed a melting point of 205 to 208 °C.

A word on the melting point: it is the temperature of the solid-liquid transition.
